From patent US20240398817A1, “CARDIO- AND RENOSAFE ANTIDIABETIC THERAPY” (priority 2018, published 2024)

System: patients with type 2 diabetes at high vascular risk
Assay: Cardiovascular and Renal Outcomes Trial: linagliptin 5 mg once daily vs placebo on top of standard of care
Format: in vivo
Settings: for Hazard ratio for hospitalised heart failure: vs placebo
Procedure: The effect of linagliptin on cardiovascular risk in adult patients with type 2 diabetes mellitus and with increased CV risk evidenced by a history of established macrovascular or renal disease (e.g. as defined herein) was evaluated in a multi-center, multi-national, randomized, double-blind parallel group trial. The trial compared the risk of experiencing a major adverse cardiovascular event (MACE) between linagliptin and placebo when these were added to and used concomitantly with standard of care treatments for diabetes (HbA1c), cardiovascular risk factors and renal disease.
The primary endpoint in this trial was the time to first occurrence of three point (3P) MACE. A major adverse cardiac event was defined as a cardiovascular death or a nonfatal myocardial infarction (MI) or a nonfatal stroke. The statistical analysis plan tested for non-inferiority for the occurrence of (3P) MACE. […] The secondary endpoint was a renal composite, defined as renal death or sustained end stage renal disease or sustained decrease of 40% or more in eGFR.
Type 2 diabetes patient with insufficient glycemic control (naïve or pre-treated with any antidiabetic background medication, excluding treatment with GLP-1 receptor agonists, DPP-4inhibitors or SGLT-2 inhibitors if ≥consecutive 7 days, e.g. having HbA1c 6.5-10%), and high risk of cardiovascular events, e.g. defined by: • albuminuria (micro or macro) and previous macrovascular disease: e.g. defined according to Condition I as indicated below; • and/or • impaired renal function: e.g. as defined according to Condition II as indicated below;
Background and aims: People with type 2 diabetes (T2D) are at increased risk for hospitalization for heart failure (hHF), particularly in the setting of concomitant cardiovascular (CV) and/or kidney disease. […] Here we present analyses of HF outcomes with the DPP-4 inhibitor linagliptin (LINA) vs. placebo (PBO) from a Cardiovascular and Renal Outcomes Trial assessing cardiovascular safety and renal microvascular outcome in patients with type 2 diabetes at high vascular risk, a large CV outcomes trial that enrolled participants with T2D at high risk for hHF due to concomitant CV and/or chronic kidney disease. Materials and methods: People with T2D and concomitant CV and/or kidney disease were randomized to receive LINA 5 mg, or PBO once daily (1:1), on top of standard of care. All hHF, CV outcomes, and deaths were centrally adjudicated, with individual and composite HF-related outcomes analyses comparing LINA vs. placebo. Investigator-reported HF-related adverse events, whether or not confirmed by adjudication, were also analyzed. A Cox proportional hazards model adjusting for region and history of HF was used for analyses of first events. Recurrent hHF events were analyzed using a negative binomial model.
Methods: The present Cardiovascular and Renal Outcomes Trial randomized people with T2D and i) concomitant CV disease with UACR >30 mg/g or ii) prevalent CKD (i.e. GFR <45 ml/min/1.73m2 and/or UACR >200 mg/g) to receive the DPP-4 inhibitor linagliptin (5 mg) or placebo once daily in a double-blind fashion. The primary CV endpoint was 3P-MACE, with a key secondary kidney endpoint (adjudicated ESKD, renal death, or sustained ≥40% decrease in eGFR from baseline) and other renal outcomes (including albuminuria and eGFR slope) also assessed. Subgroups were assessed by baseline kidney function (eGFR ≥/<45 ml/min/1.73m2and eGFR ≥/<30, 45 or 60 ml/min/1.73m2).
Adults with type 2 diabetes, HbA1c 6.5-10.0% inclusive, and high CV risk were eligible for inclusion. […] Macrovascular disease eligibility criteria was based on documented and confirmed history of myocardial infarction, coronary artery disease, stroke, carotid artery disease, or peripheral artery disease. Participants with end-stage kidney disease (ESKD), defined as eGFR <15 or requiring maintenance dialysis, were excluded.

[1] = ACE inhibitors/angiotensin receptor blockers No
[2] = ACE inhibitors/angiotensin receptor blockers Yes
[3] = Albuminuria and previous macrovascular disease plus eGFR 45-75 with an UACR >200 mg/g
[4] = Albuminuria and previous macrovascular disease plus renal impairment (eGFR 15-<45 with any UACR)
[5] = Albuminuria and previous macrovascular disease without eGFR >45 mL/min/1.73 m2
[6] = Angiotensin-converting enzyme inhibitors No
[7] = Angiotensin-converting enzyme inhibitors Yes
[8] = Angiotensin-converting enzyme inhibitors/angiotensin receptor blockers No
[9] = Angiotensin-converting enzyme inhibitors/angiotensin receptor blockers Yes
[10] = Blood pressure control SBP <140 mmHg
[11] = Blood pressure control SBP <160 mmHg
[12] = Blood pressure control SBP ≥140 mmHg
[13] = Blood pressure control SBP ≥160 mmHg

## CC#CCn1c(N2CCC[C@@H](N)C2)nc2c1c(=O)n(Cc1nc(C)c3ccccc3n1)c(=O)n2C [Linagliptin, 1-[(4-methyl-quinazolin-2-yl)methyl]-3-methyl-7-(2-butyn-1-yl)-8-(3-(R)-amino-piperidin-1-yl)-xanthine]
[1]
  3-point MACE: hazard ratio vs placebo: 0.93
  3-point MACE: patients with event/patients analyzed: 89/634
  Key secondary kidney outcome: hazard ratio vs placebo: 0.96
  Key secondary kidney outcome: patients with event/patients analyzed: 62/634
[2]
  3-point MACE: hazard ratio vs placebo: 1.06
  3-point MACE: patients with event/patients analyzed: 345/2860
  Key secondary kidney outcome: hazard ratio vs placebo: 1.07
  Key secondary kidney outcome: patients with event/patients analyzed: 265/2860
Age <65 years
  3-point MACE: hazard ratio vs placebo: 1.11
  3-point MACE: patients with event/patients analyzed: 154/1467
  Key secondary kidney outcome: hazard ratio vs placebo: 1.05
  Key secondary kidney outcome: patients with event/patients analyzed: 180/1467
  Patients with event/patients analysed, hospitalised heart failure: 67/1467
  Hazard ratio for hospitalised heart failure: 0.87
Age ≥65 years
  3-point MACE: hazard ratio vs placebo: 0.97
  3-point MACE: patients with event/patients analyzed: 280/2027
  Key secondary kidney outcome: hazard ratio vs placebo: 1.05
  Key secondary kidney outcome: patients with event/patients analyzed: 147/2027
  Patients with event/patients analysed, hospitalised heart failure: 142/2027
  Hazard ratio for hospitalised heart failure: 0.91
[3]
  3-point MACE: hazard ratio vs placebo: 0.88
  3-point MACE: patients with event/patients analyzed: 119/647
  Key secondary kidney outcome: hazard ratio vs placebo: 0.99
  Key secondary kidney outcome: patients with event/patients analyzed: 74/647
[4]
  3-point MACE: hazard ratio vs placebo: 1.12
  3-point MACE: patients with event/patients analyzed: 195/1462
  Key secondary kidney outcome: hazard ratio vs placebo: 1.01
  Key secondary kidney outcome: patients with event/patients analyzed: 215/1462
[5]
  3-point MACE: hazard ratio vs placebo: 0.97
  Key secondary kidney outcome: hazard ratio vs placebo: 1.22
All patients
  3-point MACE: patients with event/patients analyzed: 434/3493
  Key secondary kidney outcome: patients with event/patients analyzed: 327/3493
  Patients with event/patients analysed, hospitalised heart failure: 209/3494
  Hazard ratio for hospitalised heart failure: 0.90
[6]
  Patients with event/patients analysed, hospitalised heart failure: 132/1920
  Hazard ratio for hospitalised heart failure: 1.02
[7]
  Patients with event/patients analysed, hospitalised heart failure: 77/1574
  Hazard ratio for hospitalised heart failure: 0.75
[8]
  Patients with event/patients analysed, hospitalised heart failure: 48/634
  Hazard ratio for hospitalised heart failure: 0.84
[9]
  Patients with event/patients analysed, hospitalised heart failure: 161/2860
  Hazard ratio for hospitalised heart failure: 0.92
Antiplatelet drugs No
  3-point MACE: hazard ratio vs placebo: 1.10
  3-point MACE: patients with event/patients analyzed: 125/1102
  Key secondary kidney outcome: hazard ratio vs placebo: 1.25
  Key secondary kidney outcome: patients with event/patients analyzed: 131/1102
  Patients with event/patients analysed, hospitalised heart failure: 61/1102
  Hazard ratio for hospitalised heart failure: 0.94
Antiplatelet drugs Yes
  3-point MACE: hazard ratio vs placebo: 0.99
  3-point MACE: patients with event/patients analyzed: 309/2392
  Key secondary kidney outcome: hazard ratio vs placebo: 0.94
  Key secondary kidney outcome: patients with event/patients analyzed: 196/2392
  Patients with event/patients analysed, hospitalised heart failure: 148/2392
  Hazard ratio for hospitalised heart failure: 0.88
Atrial fibrillation No
  Patients with event/patients analysed, hospitalised heart failure: 154/3175
  Hazard ratio for hospitalised heart failure: 0.86
Atrial fibrillation Yes
  Patients with event/patients analysed, hospitalised heart failure: 55/319
  Hazard ratio for hospitalised heart failure: 1.06
Beta blockers No
  3-point MACE: hazard ratio vs placebo: 0.87
  3-point MACE: patients with event/patients analyzed: 134/1414
  Key secondary kidney outcome: hazard ratio vs placebo: 1.14
  Key secondary kidney outcome: patients with event/patients analyzed: 161/1414
  Patients with event/patients analysed, hospitalised heart failure: 55/1414
  Hazard ratio for hospitalised heart failure: 0.95
Beta blockers Yes
  3-point MACE: hazard ratio vs placebo: 1.11
  3-point MACE: patients with event/patients analyzed: 300/2080
  Key secondary kidney outcome: hazard ratio vs placebo: 0.97
  Key secondary kidney outcome: patients with event/patients analyzed: 166/2080
  Patients with event/patients analysed, hospitalised heart failure: 154/2080
  Hazard ratio for hospitalised heart failure: 0.88
[10]
  Patients with event/patients analysed, hospitalised heart failure: 84/1750
  Hazard ratio for hospitalised heart failure: 0.68
[11]
  Patients with event/patients analysed, hospitalised heart failure: 164/3017
  Hazard ratio for hospitalised heart failure: 0.84
[12]
  Patients with event/patients analysed, hospitalised heart failure: 125/1744
  Hazard ratio for hospitalised heart failure: 1.15
[13]
  Patients with event/patients analysed, hospitalised heart failure: 45/477
  Hazard ratio for hospitalised heart failure: 1.24
Body mass index <30 kg/m^2
  3-point MACE: hazard ratio vs placebo: 0.98
  3-point MACE: patients with event/patients analyzed: 191/1516
  Key secondary kidney outcome: hazard ratio vs placebo: 1.14
  Key secondary kidney outcome: patients with event/patients analyzed: 162/1516
  Patients with event/patients analysed, hospitalised heart failure: 78/1516
  Hazard ratio for hospitalised heart failure: 0.98
